Data: US9708628B2, “Cationic lipid having improved intracellular kinetics” (NOF CORPORATION, priority 2011, dated 2017)
“Also recorded” adds a separate entry of the source.

Tests used:
Factor VII (FVII) = assay: Knockdown effect of siRNA-encapsulated MEND (plasma FVII); type: in vivo, ICR mice; details: 3 mg siRNA/kg, tail vein, 24 hr
Method: A siRNA solution and protamine (CALBIOCHEM) solution were diluted with 10 mM HEPES buffer (pH 5.3) to 0.3 mg/mL and 0.2 mg/mL, respectively. While stirring 0.3 mg/mL siRNA solution (250 μL), 0.2 mg/mL protamine solution (250 μL) was added dropwise in small portions to prepared an electrostatic complex of siRNA and protamine (N/P ratio=1.0) as a core of the vector.
As a siRNA sequence for Factor VII (FVII), one described in Akinc et al, Molecular Therapy, 17(5) 872-879 (2009), which was free of chemical modification, was used.
A lipid solution in ethanol was mixed at a ratio of B-2:SOPE:Chol=5:3:2 for B-2 MEND (Example 1), at a ratio of B-2-4:DOPE:Chol=3:3:4 for B-2-4 MEND (Example 4), and at a ratio of B-2-5:POPE:Chol=3:4:3 for B-2-5 MEND (Example 5), to a total lipid of 660 nmol in a 5 mL tube. Further, PEG2000-DMG was added as PEG lipid in an amount equivalent to 3 mol % of the total lipid, and ethanol was added to a total volume of 400 μL each. While stirring the lipid solution by a vortex mixer, a solution (400 μL) of a nucleic acid electrostatic complex composed of siRNA/protamine prepared in [Experimental Example 27] was mixed, then 10 mM HEPES buffer (pH 5.3, 2.4 mL) was quickly added, and the mixture was vigorously stirred. The mixture was subjected to centrifugal ultrafiltration using Amicon Ultra-15 100K device (Millipore) at 1000 g, 10 min, 30° C. The mixture was sufficiently diluted with 10 mM HEPES buffer (pH 7.4), and again subjected to centrifugal ultrafiltration. This solution was adjusted to an object lipid concentration with 10 mM HEPES buffer (pH 7.4).
A MEND solution prepared by the method shown in [Experimental Example 28] was administered to 4-week-old male ICR mice at 3 mg siRNA/kg from the tail vein, and blood was collected 24 hr later. This blood sample was centrifuged at 1000 g, 10 min, 4° C., and the supernatant was recovered to obtain plasma. The amount of Factor VII (FVII) in the plasma was quantified by BIOPHEN FVII CHROMOGENIC ASSAY (HYPHEN BioMed).

HT1080 cells [1] = assay: Intracellular kinetics: endosomal escape of rhodamine-labeled pDNA (confocal microscopy); type: cell-based; details: for gene endosomal escape efficiency, quantified (order): FIG. 7; for endosomal escape potency (colocalization of pDNA red and endosome/lysosome green): cationic lipid:SOPE:Chol=5:3:2 or DOTAP:DOPE:Chol=3:4:3, 3 hr after transfection
Method: For MEND preparation, the Rhodamine-labeled pDNA prepared by the method of [Experimental Example 1] (4) was used. MEND having a composition of cationic lipid:SOPE:Chol=5:3:2 was prepared by the method described in [Experimental Example 1] (2). For the preparation, PEG2000-DMG was used as PEG lipid, and MEND solutions corresponding to 0.55 mM of the lipid concentration were prepared. For cationic MEND, lipids having a composition of DOTAP (Comparative Example 3):DOPE:Chol:=3:4:3 were used, and the cationic MEND was prepared according to the method described in [Experimental Example 1] (3). In addition, cationic MEND having a lipid composition of DOTAP:DOPE:Chol:=3:4:3 was also prepared by a simple hydration method to have a lipid concentration of 0.55 mM.
HT1080 cells were plated on a glass bottom dish at 1×10^5 cells/2 mL/dish 24 hr before. Since MENDs composed of B-2 or DODAP show low uptake activity into cells, MEND was diluted with Krebs buffer to pDNA 8 μg/1 mL Krebs buffer/dish. As for B-2-1 or DOTAP MEND having a high uptake activity, MEND was diluted with Krebs buffer to pDNA 1.6 μg/1 mL Krebs buffer/dish and transfected into the cells. After 2.5 hr, Lysotracker Green (Life technologies) was added at 1 μL/dish and, 30 min later, Hoechst 33342 (Dojindo) was further added at 1 μL/dish. 3 hr after the transfection, the cells were washed twice with heparin (20 units/mL, 2 mL), Krebs buffer (1 mL) was added, and the mixture was observed by a confocal laser scan microscope.
Rhodamine-labeled pDNA, endosome/lysosome, and nucleus were shown in pseudo colors of red, green and blue, respectively. The endosomal escape potency was evaluated by the colocalization of red and green. […] Furthermore, the gene endosomal escape efficiency was quantified to find higher efficiency in the order of DODAP<B-2-1<B-2.

HT1080 cells [2] = assay: Intracellular kinetics: decapsulation of pDNA from MEND (confocal microscopy); type: cell-based; details: 3 hr after transfection
Method: For MEND preparation, the Rhodamine-labeled pDNA prepared by the method of [Experimental Example 1] (4) was used. In addition, the fluorescence label of the lipid constituting MEND was measured by the method described in [Experimental Example 1] (3). MENDs having a composition of cationic lipid:SOPE:Chol=5:3:2 were prepared by the method described in [Experimental Example 1] (2). For the preparation, PEG2000-DMG was used as PEG lipid, and MEND solutions corresponding to 0.55 mM of the lipid concentration were prepared. For cationic MEND, a lipid having a composition of DOTAP:DOPE:Chol:=3:4:3 was used, and the cationic MEND was prepared according to the method described in [Experimental Example 1] (3). […]
HT1080 cells were plated on a glass bottom dish at 1×10^5 cells/2 mL/dish 24 hr before. B-2 MEND was diluted with Krebs buffer to achieve pDNA 8 μg/1 mL Krebs buffer/dish. As for B-2-1 or DOTAP MEND, MEND was diluted with Krebs buffer to achieve pDNA 1.6 μg/1 mL Krebs buffer/dish and transfected. After 2.5 hr, Hoechst 33342 was added at 1 μL/dish and, 30 min later, the cells were washed twice with heparin solution (20 units/mL, 2 mL), Krebs buffer (1 mL) was added, and the cells were observed by a confocal laser scan microscope.
Rhodamine-labeled pDNA, lipid membrane of MEND and nucleus were shown in pseudo colors of red, green and blue, respectively.

Compound: CC1=C(/C=C/C(C)=C/C=C/C(C)=C/C(=O)OCCCN(C)CCSSCCN(C)CCCOC(=O)/C=C(C)/C=C/C=C(C)/C=C/C2=C(C)CCCC2(C)C)C(C)(C)CCC1 [Example B-2-4]
- FVII expression level in plasma (knockdown effect) (Factor VII (FVII)): decrease in the FVII expression level as compared to the non-treatment group

Compound: CCCCCCCC/C=C\CCCCCCCC(=O)OCC(CN(C)C)OC(=O)CCCCCCC/C=C\CCCCCCCC (stereo not shown) [DODAP, reference compound]
- gene endosomal escape efficiency, quantified (order) (HT1080 cells [1]): DODAP<B-2-1<B-2
- endosomal escape potency (colocalization of pDNA red and endosome/lysosome green) (HT1080 cells [1]): colocalization of red and green was notable

Compound: CCCCCCCC/C=C\CCCCCCCC(=O)OCC(C[N+](C)(C)C)OC(=O)CCCCCCC/C=C\CCCCCCCC (stereo not shown) [DOTAP, reference compound]
- gene decapsulation (colocalization of pDNA red and MEND lipid green) (HT1080 cells [2]): Red dots were notable
- endosomal escape potency (colocalization of pDNA red and endosome/lysosome green) (HT1080 cells [1]): red signal alone was present

Compound: CCCCCCCCCCCCCC(=O)OCCCN(C)CCSSCCN(C)CCCOC(=O)CCCCCCCCCCCCC [Example B-2]
- FVII expression level in plasma (knockdown effect) (Factor VII (FVII)): decrease in the FVII expression level as compared to the non-treatment group
- gene decapsulation (colocalization of pDNA red and MEND lipid green) (HT1080 cells [2]): Red dots were notable
- gene endosomal escape efficiency, quantified (order) (HT1080 cells [1]): DODAP<B-2-1<B-2
- endosomal escape potency (colocalization of pDNA red and endosome/lysosome green) (HT1080 cells [1]): red signal alone was present

Compound: CCCCCCCCCCCCCC(=O)OCCCN(C)CCCCCCN(C)CCCOC(=O)CCCCCCCCCCCCC [Example B-2-1, reference compound]
- gene decapsulation (colocalization of pDNA red and MEND lipid green) (HT1080 cells [2]): clear colocalization of red and green
- gene endosomal escape efficiency, quantified (order) (HT1080 cells [1]): DODAP<B-2-1<B-2
- endosomal escape potency (colocalization of pDNA red and endosome/lysosome green) (HT1080 cells [1]): red signal alone was present

Compound: Cc1c(C)c2c(c(C)c1OC(=O)CCC(=O)OCCCN(C)CCSSCCN(C)CCCOC(=O)CCC(=O)Oc1c(C)c(C)c3c(c1C)CCC(C)(CCCC(C)CCCC(C)CCCC(C)C)O3)CCC(C)(CCCC(C)CCCC(C)CCCC(C)C)O2 (stereo not shown) [Example B-2-5]
- FVII expression level in plasma (knockdown effect) (Factor VII (FVII)): decrease in the FVII expression level as compared to the non-treatment group; also recorded: greatest knockdown effect
